Results on 26 molecules are retold here after patent US20020183384A1, “Methods of treating nuclear factor-kappa B mediated diseases and disorders” (priority 2001, published 2002).

Structures can show the parent of a compound that is named as a salt. Bounds are passed on as bounds.

For one assay, the system named is NF-κB mediated transcription. Nature of the assay: NF-κB driven β-lactamase reporter assay in ECV-304 NF-κB.βlaZ cells (AURORA CCF2 fluorescence). The format is cell-based, human. The following applies: 10 μM compound; ECV-304 NF-κB.βlaZ cells stimulated with 10 ng/mL TNF-α or 100 pg/mL IL-1β, 6 hours at 37° C.; inhibition of maximum blue/green ratio. The source says:
Introduction: Described below is an in vitro, cell-based, high throughput screening assay that reliably identifies inhibitors of NF-κB mediated transcription.
The assay takes advantage of AURORA (Aurora Bioscience Corporation, La Jolla, Calif.) fluorescence technology. Endothelial cell vein-304 (ECV-304) cells, an endothelial-like immortalized cell type, may be stably transfected with a plasmid vector containing the cDNA for the enzyme β-lactamase (under the control of a basal promoter, Stratagene pNFκB-luc vector) and 5 copies of an human immunodeficiency virus-1 (HIV-1) NF-κB binding site. ECV-304 cells are described by Takahashi K. et al. in Spontaneous Transformation and Immobilization of Human Endothelial Cells, In Vitro Cell. Dev. Biol. 1990;25:265-274. Activation of NF-κB in ECV-304 by cytokines such as TNF-α or interleuken-1 beta (IL-1β) results in the production of β-lactamase, which cleaves a green fluorescent substrate (excitation/emission wavelengths 395 nm1530 nm) to yield a blue fluorescent product (excitation/emission wavelengths 395 nm/460 nm). Visually, the uncleaved green fluorescent substrate is sequestered intracellularly and emits green fluorescence, while the cleaved product emits blue fluorescence. Fluorescence is quantitated spectrophotometrically, and the spectral intensity of blue fluorescence versus green fluorescence can be used to calculate the degree of activation of NF-κB.
The assay was performed as outlined here and described in detail below. ECV-304 cells permanently transfected with the NF-κB driven β-lactamase gene (ECV-304 NF-κB.βlaZ) were plated in clear-bottom, black 96-well plates (1.25×10^4 cells/well) in media-199 (M-199) media containing 2% fetal bovine serum (FBS). […] The AURORA fluorescent disclosing reagent was then added. After one additional hour, the plates were read in a fluorometer at the blue 395 nm/460 nm (excitation/emission) and green 395 nm/530 nm wavelengths. Then the blue/green emission ratio was calculated. […] An IC50 for said sulfonylaminocarbonyl derivative was determined from a dose-response curve. This assay was designed to be optionally run in either high or low throughput screening modes.
Five copies of the HIV-1 NF-κB binding site (5′-[…]-3′) along with a TATA box were inserted into the EcorRI/BamHI sites of plasmid pMCRBlaZ to create plasmid p5×KBBlaZ, which procedure is illustrated in Scheme 1 below. [formula]
Cells were selected for antibiotic resistance with Zeocin for approximately 2 weeks. After the stable population had been expanded to a significant number of cells, it was stimulated with IL-1β and stained with AURORA CCF2 dye, a membrane permeant, intracellularly-trapped, fluorescent substrate. Cells that fluoresced blue (indicating a positive response of the NF-κB/β-lactamase reporter to stimulation by IL-1β) in the stimulated/stained population were then sorted by flow cytometry into a pool. The pool was expanded and stained with CCF2, and then the cells that fluoresced green from this unstimulated population (indicating a low background of the NF-κB/β-lactamase reporter construct) were cloned by flow cytometry after adding 1 cell per well in 96-well plates. Clones were allowed to expand. Each cloned cell line was then examined for fold stimulation after stimulation with IL-1β using a CCF2 reporter assay, and these stimulated cells were compared to unstimulated cells.
Cells: ECV-304 NF-κB β-Lactamase clone 1E8
Inhibitors: Prepared stock solutions of aminosulfonyl derivatives at 10 mM concentration in DMSO;
c) Added 10 μL of B into appropriate well in assay plate (the final concentration of drug is 10 μM), and […]
`CC(C)c1cccc(C(C)C)c1NC(=O)NS(=O)(=O)N(CC1CCCO1)CC1CCCO1` (centres unmarked) [Example 41, N-[2,6-bis(1-methylethyl)phenyl]-N′-[[bis[(tetrahydro-2-furanyl)methyl]amino]sulfonyl]-urea,]: the “Percent Inhibition at 10 μM” value was below 10%.

Staying with this assay, now noted: Homo sapiens, ECV-304, 6 h, 10 μM compound; ECV-304 NF-κB.βlaZ cells stimulated with 10 ng/mL TNF-α or 100 pg/mL IL-1β, 6 hours at 37° C.; inhibition of maximum blue/green ratio; read-out: Percent Inhibition at 10 μM.
For `CC(C)c1cccc(C(C)C)c1NS(=O)(=O)NC(=O)N(Cc1ccccc1)Cc1ccccc1` [Example 29, N′-[[[2,6-bis(1-methylethyl)phenyl]amino]sulfonyl]-N,N-bis(phenylmethyl)-urea], the inhibition at 10 µM worked out at 38.5%.

Turning to `CC(C)c1cccc(C(C)C)c1NC(=O)NS(=O)(=O)N1CCC(c2ccccc2)CC1` [Example 35, N-[2,6-bis(1-methylethyl)phenyl]-N′-[(4-phenyl-1-piperidinyl)-sulfonyl]-urea], the inhibition at 10 µM is below 10%.

For `CCCCCCN(CCCCCC)S(=O)(=O)NC(=O)Nc1c(C(C)C)cccc1C(C)C` [Example 36, N-[2,6-bis(1-methylethyl)phenyl]-N′-[(dihexylamino)sulfonyl]-urea], the inhibition at 10 µM was found to be 51.2%.

As to `CC(C)c1cccc(C(C)C)c1NC(=O)NS(=O)(=O)N(CCCN(C)C)CCCN(C)C` [Example 37, N-[[bis[3-(dimethylamino)propyl]amino]sulfonyl]-N′-[2,6-bis(1-methylethyl)phenyl]-urea], the inhibition at 10 µM was below 10%.

As to `CCCCCCNS(=O)(=O)NC(=O)Nc1c(C(C)C)cccc1C(C)C` [Example 39, N-[2,6-bis(1-methylethyl)phenyl]-N′-[(hexylamino)sulfonyl]-urea], the inhibition at 10 µM is below 10%.

As for `CCN(CC)S(=O)(=O)NC(=O)Nc1c(C(C)C)cccc1C(C)C` [Example 44, Urea, N-[2,6-bis(1-methylethyl)phenyl]-N′-[(diethylamino)sulfonyl]-], the inhibition at 10 µM was below 10%.

On to `CCCCCCCCN(C)S(=O)(=O)NC(=O)Nc1c(C(C)C)cccc1C(C)C` [Example 45, Urea, N-[2,6-bis(1-methylethyl)phenyl]-N′-[(methyloctylamino)sulfonyl]-], for which the inhibition at 10 µM came to 53.5%.

The same assay, now with this note: Homo sapiens; 10 μM compound; ECV-304 NF-κB.βlaZ cells stimulated with 10 ng/mL TNF-α or 100 pg/mL IL-1β, 6 hours at 37° C.; inhibition of maximum blue/green ratio; read-out: Percent Inhibition at 10 μM.
For `CC(C)c1cccc(C(C)C)c1OC(=O)NS(=O)(=O)N(Cc1ccccc1)Cc1ccccc1` [Example 25, Carbamic acid, [[bis(phenylmethyl)amino]sulfonyl]-, 2,6-bis(1-methylethyl)-phenyl ester], the inhibition at 10 µM was 33.2%.

As for `CC(C)c1cccc(C(C)C)c1OC(=O)NS(=O)(=O)N(c1ccccc1)c1ccccc1` [Example 26, Carbamic acid, [(diphenylamino)sulfonyl]-, 2,6-bis(1-methylethyl)phenyl ester], the inhibition at 10 µM came out at 32.8%.

As to `CCCCN(CCCC)S(=O)(=O)NC(=O)Oc1c(C(C)C)cccc1C(C)C` [Example 27, Carbamic acid, [(dibutylamino)sulfonyl]-, 2,6-bis(1-methylethyl)phenyl ester], the inhibition at 10 µM came out at 26.1%.

In the case of `CC(C)c1cccc(C(C)C)c1OC(=O)NS(=O)(=O)Oc1c(C(C)C)cccc1C(C)C` [Example 28, Carbamic acid, [[2,6-bis(1-methylethyl)phenoxy]sulfonyl]-, 2,6-bis(1-methylethyl)phenyl ester], the inhibition at 10 µM came out at 30.2%.

As for `CCCCN(CCCC)S(=O)(=O)NC(=O)Oc1c(C(C)(C)C)cc(C)cc1C(C)(C)C` [Example 30, Carbamic acid, [(dibutylamino)sulfonyl]-, 2,6-bis(1,1-dimethylethyl)-4-methylphenyl ester], the inhibition at 10 µM was 52%.

As for `CCCCCN(CCCCC)S(=O)(=O)NC(=O)Oc1c(C(C)(C)C)cc(C)cc1C(C)(C)C` [Example 31, Carbamic acid, [(dipentylamino)sulfonyl]-, 2,6-bis(1,1-dimethylethyl)-4-methylphenyl ester], the inhibition at 10 µM worked out at 74%.

With `Cc1cc(C(C)(C)C)c(OC(=O)NS(=O)(=O)N(C(C)C)C(C)C)c(C(C)(C)C)c1` [Example 32, Carbamic acid, [[bis(1-methylethyl)amino]sulfonyl]-, 2,6-bis(1,1-dimethylethyl)-4-methylphenyl ester], the inhibition at 10 µM is 20.3%.

`CCCCCCN(CCCCCC)S(=O)(=O)NC(=O)Oc1c(C(C)(C)C)cc(C)cc1C(C)(C)C` [Example 33, Carbamic acid, [(dihexylamino)sulfonyl]-, 2,6-bis(1,1-dimethylethyl)-4-methylphenyl ester]: the inhibition at 10 µM turned out to be 58.6%.

As to `CCCCCCNS(=O)(=O)NC(=O)Oc1c(C(C)(C)C)cc(C)cc1C(C)(C)C` [Example 34, Carbamic acid, [(hexylamino)sulfonyl]-, 2,6-bis(1,1-dimethylethyl)-4-methylphenyl ester], the inhibition at 10 µM is 24.3%.

As for `Cc1cc(C(C)(C)C)c(OC(=O)NS(=O)(=O)N(C)CCc2ccccc2)c(C(C)(C)C)c1` [Example 38, Carbamic acid, [[methyl(2-phenylethyl)amino]sulfonyl]-, 2,6-bis(1,1-dimethylethyl)-4-methylphenyl ester], the inhibition at 10 µM came out at 31.5%.

As to `Cc1cc(C(C)(C)C)c(OC(=O)NS(=O)(=O)N(CCCN(C)C)CCCN(C)C)c(C(C)(C)C)c1` [Example 40, Carbamic acid, [[bis[3-(dimethylamino)propyl]amino]sulfonyl]-, 2,6-bis(1,1-dimethylethyl)-4-methylphenyl ester], the inhibition at 10 µM was below 10%.

As to `Cc1cc(C(C)(C)C)c(OC(=O)NS(=O)(=O)N(C)CCc2ccccn2)c(C(C)(C)C)c1` [Example 42, Carbamic acid, [[methyl[2-(2-pyridinyl)ethyl]amino]sulfonyl]-, 2,6-bis(1,1-dimethylethyl)-4-methylphenyl ester, monohydrochloride], the inhibition at 10 µM is below 10%.

Turning to `CCCCCCCCN(C)S(=O)(=O)NC(=O)Oc1c(C(C)(C)C)cc(C)cc1C(C)(C)C` [Example 43, Carbamic acid, [(methyloctylamino)sulfonyl]-, 2,6-bis(1,1-dimethylethyl)-4-methylphenyl ester], the inhibition at 10 µM was found to be 70.2%.

As to `CCCCCCCCN(CCCCCCCC)S(=O)(=O)NC(=O)Oc1c(C(C)(C)C)cc(C)cc1C(C)(C)C` [Example 46, Carbamic acid, [(dioctylamino)sulfonyl]-, 2,6-bis(1,1-dimethylethyl)-4-methylphenyl ester], the inhibition at 10 µM amounted to 34.8%.

For `COc1cc(C(C)(C)C)c(OC(=O)NS(=O)(=O)NCC(c2ccccc2)c2ccccc2)c(C(C)(C)C)c1` [Example 47, Carbamic acid, [[(2,2-diphenylethyl)amino]sulfonyl]-, 2,6-bis(1,1-dimethylethyl)-4-methoxyphenyl ester], the inhibition at 10 µM was 41.9%.

Consider `Cc1cc(C(C)(C)C)c(OC(=O)NS(=O)(=O)Oc2ccccc2)c(C(C)(C)C)c1` [Example 48, Carbamic acid, (phenoxysulfonyl)-, 2,6-bis(1,1-dimethylethyl)-4-methylphenyl ester], for which the inhibition at 10 µM stood at 13.8%.

For the molecule `CCCCCCOS(=O)(=O)NC(=O)Oc1c(C(C)(C)C)cc(C)cc1C(C)(C)C` [Example 49, Carbamic acid, [(hexyloxy)sulfonyl]-, 2,6-bis(1,1-dimethylethyl)-4-methylphenyl ester], the inhibition at 10 µM was determined as 22.9%.

For `COc1cc(C(C)(C)C)c(OC(=O)NS(=O)(=O)Nc2c(C(C)C)cccc2C(C)C)c(C(C)(C)C)c1` [Example 50, Carbamic acid, [[[2,6-bis(1-methylethyl)phenyl]amino]sulfonyl]-, 2,6-bis(1,1-dimethylethyl)-4-methoxyphenyl ester], the inhibition at 10 µM turned out to be 39.1%.
